Experimental data taken from ChEMBL document CHEMBL3044987, “7-chloro-3-(substituted benzylidene/phenyl ethylidene amino)-2-phenylquinazolin-4(3H)-ones: synthesis, antimicrobial and antitubercular evaluation” (2012).

Experiments:
Assay type in all cases: functional
[1] = system: Escherichia coli; experiment: Antibacterial activity against Escherichia coli ATCC 25922 after 24 hr by disk diffusion method
[2] = system: Staphylococcus aureus; experiment: Antibacterial activity against Staphylococcus aureus ATCC 6538 after 24 hr by disk diffusion method
[3] = system: Pseudomonas aeruginosa; experiment: Antibacterial activity against Pseudomonas aeruginosa ATCC 27853 after 24 hr by disk diffusion method

Row | Compound | inhibition zone (IZ) [1] [mm] | inhibition zone (IZ) [2] [mm] | inhibition zone (IZ) [3] [mm]
1 | C/C(=N\n1c(-c2ccccc2)nc2cc(Cl)ccc2c1=O)c1ccc(Cl)cc1 | 22 | 15 | 4
2 | COc1cc(/C=N/n2c(-c3ccccc3)nc3cc(Cl)ccc3c2=O)ccc1O | 21 | 15 | 5
3 | C/C(=N\n1c(-c2ccccc2)nc2cc(Cl)ccc2c1=O)c1ccc(O)cc1 | 22 | 15 | 4
4 | O=C(O)c1cn(C2CC2)c2cc(N3CCNCC3)c(F)cc2c1=O [CIPROFLOXACIN] | – | 17 | 18
